Among the data in patent US12454525B2, “IL4I1 inhibitors and methods of use” (Merck Sharp & Dohme LLC, priority 2020, dated 2025) are EC50 values, retold here.

This assay deals with T1, recombinant IL4I1 (Homo sapiens, UniProt Q96RQ9).
T1 construct: purchased R&D Systems 5684-AO-020
T1 sequence (Q96RQ9 22-567): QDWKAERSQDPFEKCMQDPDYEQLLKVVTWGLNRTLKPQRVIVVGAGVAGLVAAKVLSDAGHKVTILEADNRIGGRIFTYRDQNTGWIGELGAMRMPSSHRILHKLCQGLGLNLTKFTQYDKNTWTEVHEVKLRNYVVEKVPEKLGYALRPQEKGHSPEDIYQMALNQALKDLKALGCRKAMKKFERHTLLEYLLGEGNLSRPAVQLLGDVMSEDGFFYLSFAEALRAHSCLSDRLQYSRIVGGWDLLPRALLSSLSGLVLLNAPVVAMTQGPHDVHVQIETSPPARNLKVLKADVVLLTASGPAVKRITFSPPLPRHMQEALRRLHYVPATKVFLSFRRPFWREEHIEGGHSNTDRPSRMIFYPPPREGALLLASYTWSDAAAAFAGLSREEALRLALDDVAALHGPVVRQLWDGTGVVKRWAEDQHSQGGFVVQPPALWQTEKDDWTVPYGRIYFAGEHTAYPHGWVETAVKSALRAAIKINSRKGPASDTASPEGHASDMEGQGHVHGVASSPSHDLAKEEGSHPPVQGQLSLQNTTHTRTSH
The assay is described as follows: IL4I1 Enzymatic Assay (Amplex Red/HRP coupled H2O2 detection). The class given is biochemical. To be noted: 240 min; four-hour pre-incubation with compound; 1 nM IL4I1, 1 mM each Phe/Tyr/Trp; ten-point titration; fluorescence readout; read-out: Potency EC50 (nM) (240 min). The protocol: Interleukin 4 inducible protein 1 (IL4I1) is an L-amino oxidase that catalyzes the oxidation of aromatic residues (Phe, Trp and Tyr): L-amino acid+H2O+O2→2-oxo acid+NH3+H2O2. Equal molar of H2O2 and the corresponding alpha-ketoacid are produced when IL4I1 and substrate are added. In this assay, the hydrogen peroxide generated by IL4I1 is then detected through a coupled reaction with Amplex Red (10-acetyl-3,7-dihydroxyphenoxazine) and […] (HRP) to produce Resorufin product that could be detected in the form of fluorescence signals. The assessment of the inhibitory effect of small molecules (EC50) on IL4I1 is measured by the effectiveness of the compounds to inhibit the production of H2O2.
Using this assay, the potency (EC50) of each compound was determined from a ten-point (1:3 serial dilution) titration curve using the following outlined procedure. To each well of a black flat-bottom Greiner (Cat #781076) 384 well-plate, 25 nL of compound (0.1% DMSO in final assay volume of 25 μL) was dispensed, followed by the addition of 12.5 μL of 1x assay buffer (50 mM Hepes 7.0 and 0.005% Tween20 (Sigma, Cat #P8341; low peroxide grade)) containing 2 nM of recombinant IL4I1 (R&D Systems, Cat #5684-AO-020). Plates were placed in an ambient temperature humidified chamber for a four-hour pre-incubation with compound. Subsequently, each reaction was initiated by the addition of 12.5 μL 1x assay buffer containing 2 mM of each aromatic amino acids (Phe/Tyr/Trp), 0.1 mM Amplex Red and 2 U/mL of HRP. The final reaction in each well of 25 μL consists of 1 nM of IL411, 1 mM of each residues (Phe, Tyr and Trp), 0.05 mM Amplex Red and 1 U/mL of HRP. It should be noted that the concentrations of Amplex Red and HRP used here are in excess such that the conversion of H2O2 to Resorufin product occurs instantaneously and non-rate limiting. Reactions were allowed to proceed for 120 minutes followed by fluorescence readout on a Spectramax with the following set parameters: 544 nm excitation/590 nm emission, 570 nm cutoff (EnVision is an alternative reader). Dose-response curves were generated by plotting percent effect (% product conversion; Y-axis) vs. Log10 compound concentrations (X-axis). EC50 values were calculated using a non-linear regression, four-parameters sigmoidal dose-response model and are shown in Table 16.
Consider `CC(=O)NC1CCc2ccc(Cn3c(=O)[nH]c4ccccc43)cc21` (single isomer, unassigned) [Example 45, N-(6-((2-oxo-2,3-dihydro-1H-benzo[d]imidazol-1-yl)methyl)-2,3-dihydro-1H-inden-1-yl)acetamide], for which the EC50 (usually the concentration at which the effect is half-maximal) was 21 nM.
The value for `CNC(=O)C1CCc2cc(Cn3c(=O)[nH]c4ccccc43)ccc21` (single isomer, unassigned) [Example 46, N-methyl-5-((2-oxo-2,3-dihydro-1H-benzo[d]imidazol-1-yl)methyl)-2,3-dihydro-1H-indene-1-carboxamide] was 9 nM; that for `O=c1[nH]c2ccccc2n1Cc1ccc(Cn2nncc2CO)cc1` (single isomer, unassigned) [Example 81, 1-(4-((5-(hydroxymethyl)-1H-1,2,3-triazol-1-yl)methyl)benzyl)-1,3-dihydro-2H-benzo[d]imidazol-2-one] was 10 nM.
As to `O=C1CCCN1Cc1ccc(Cn2c(=O)[nH]c3ccc(F)cc32)cc1` (single isomer, unassigned) [Example 84, 6-fluoro-1-(4-((2-oxopyrrolidin-1-yl)methyl)benzyl)-1,3-dihydro-2H-benzo[d]imidazol-2-one], the EC50 was 10 nM.
Turning to `O=C1CCCN1Cc1ccc(Cn2c(=O)[nH]c3cc(F)ccc32)cc1` (single isomer, unassigned) [Example 85, 5-fluoro-1-(4-((2-oxopyrrolidin-1-yl)methyl)benzyl)-1,3-dihydro-2H-benzo[d]imidazol-2-one], the EC50 was 389 nM.
Consider `Cc1ccc(C2CC2Cn2c(=O)[nH]c3ccccc32)nc1` (single isomer, unassigned) [Example 111, 1-((2-(5-methylpyridin-2-yl)cyclopropyl)methyl)-1,3-dihydro-2H-benzo[d]imidazol-2-one], for which the EC50 was found to be 4 nM.
The value for `O=C1CCCN1Cc1ccc(Cn2c(=O)[nH]c3ccccc32)cc1` [Example 1, 1-(4-((2-oxopyrrolidin-1-yl)methyl)benzyl)-1,3-dihydro-2H-benzo[d]imidazol-2-one] was 13 nM.
The result for `O=C1C=CCN1Cc1ccc(Cn2c(=O)[nH]c3ccccc32)cc1` [Example 2, 1-(4-((2-oxo-2,5-dihydro-1H-pyrrol-1-yl)methyl)benzyl)-1,3-dihydro-2H-benzo[d]imidazol-2-one] reads 13 nM; that for `O=c1[nH]c2ccccc2n1Cc1ccc(Cc2nnco2)cc1` [Example 3, 1-(4-((1,3,4-oxadiazol-2-yl)methyl)benzyl)-1,3-dihydro-2H-benzo[d]imidazol-2-one], 53 nM.
In the case of `O=c1[nH]c2ccccc2n1Cc1ccc(Cc2nnco2)c(Cl)c1` [Example 4, 1-(4-((1,3,4-oxadiazol-2-yl)methyl)-3-chlorobenzyl)-1,3-dihydro-2H-benzo[d]imidazol-2-one], the EC50 came to 6 nM.
For `COc1cc(CNC(C)=O)ccc1Cn1c(=O)[nH]c2ccccc21` [Example 5, N-(3-methoxy-4-((2-oxo-2,3-dihydro-1H-benzo[d]imidazol-1-yl)methyl)benzyl)acetamide], the EC50 amounted to 15 nM.
The result for `CS(=O)(=O)NCc1ccc(Cn2c(=O)[nH]c3ccccc32)s1` [Example 6, N-((5-((2-oxo-2,3-dihydro-1H-benzo[d]imidazol-1-yl)methyl)thiophen-2-yl)methyl)methanesulfonamide] reads 6 nM.
In the case of `COc1cc(Cn2c(=O)[nH]c3ccccc32)ccc1CNC(C)=O` [Example 7, N-({2-methoxy-4-[(2-oxo-2,3-dihydro-1H-benzimidazol-1-yl)methyl]phenyl}methyl)acetamide], the EC50 amounted to 8 nM.
The result for `O=C1CCCN1Cc1ccc(Cn2c(=O)[nH]c3ccccc32)c(F)c1` [Example 8, 1-({2-fluoro-4-[(2-oxopyrrolidin-1-yl)methyl]phenyl}methyl)-1,3-dihydro-2H-benzimidazol-2-one] reads 11 nM; that for `O=C1CCCN1Cc1ccc(Cn2c(=O)[nH]c3ccccc32)cc1F` [Example 9, 1-({3-fluoro-4-[(2-oxopyrrolidin-1-yl)methyl]phenyl}methyl)-1,3-dihydro-2H-benzimidazol-2-one], 16 nM.
